Experimental data as given in US9328374B2, “Selective culture medium and method for detecting carbapenem-resistant bacteria in a test sample” (Institut National de la Sante et de la Recherche Medicale …, priority 2011, dated 2016).
Read-outs that look alike come from different tables or passages of the source.

System: K. pneumoniae
Assay: MIC of imipenem, ertapenem and meropenem
Type: cell-based, Klebsiella pneumoniae
Conditions: Klebsiella pneumoniae, read-out: MIC

For `C[C@@H](O)[C@H]1C(=O)N2C(C(=O)O)=C(S[C@@H]3CN[C@H](C(=O)Nc4cccc(C(=O)O)c4)C3)[C@H](C)[C@H]12` [ETP, ertapenem], the MIC (K. pneumoniae 1 OMA (NDM-1 + CTX-M-15 + OXA-1 + OXA-9)) was greater than 32 µg/mL, the MIC (K. pneumoniae 2 OLA (NDM-1 + OXA-1)) was 6 µg/mL and the MIC (K. pneumoniae 7 AFR (NDM-1 + OXA-1 + CTX-M-15 + CMY-6 + TEM-1)) was greater than 32 µg/mL. For the same compound, the MIC (K. pneumoniae 7AFR, NDM-1 + TEM-1 + CTX-M-15 + CMY-6 + OXA-1) was greater than 32 µg/mL, the MIC (K. pneumoniae 0227, SHV-1, non-carbapenemase producer) was 0.008 µg/mL and the MIC (K. pneumoniae 588, KPC-2 + TEM-1 + SHV-11 + OXA-9) was 32 µg/mL. The MIC (K. pneumoniae 1022, SHV-2a + SHV-28, non-carbapenemase producer) was 0.016 µg/mL, the MIC (K. pneumoniae 1025 (CTX-M-14 + TEM-1 + SHV-11)) was 0.016 µg/mL and the MIC (K. pneumoniae 1025, CTX-M-14 + TEM-1 + SHV-11, non-carbapenemase producer) was 0.016 µg/mL. The MIC (K. pneumoniae 2303, KPC-2 + SHV-11) was greater than 32 µg/mL, the MIC (K. pneumoniae 6642 GEN (NDM-1 + CTX-M-15 + OXA-1 + OXA-10)) was 16 µg/mL and the MIC (K. pneumoniae 6642 GEN, NDM-1 + CTX-M-15 + OXA-1 + OXA-10) was 16 µg/mL. It also gave an MIC (K. pneumoniae 6759 GEN (NDM-1 + CTX-M-15 + OXA-1 + OXA-9 + OXA-10 + CMY16)) greater than 32 µg/mL, an MIC (K. pneumoniae 6759 GEN, NDM-1 + CTX-M-15 + CMY-16 + OXA-1 + OXA-9 + OXA-10) greater than 32 µg/mL and an MIC (K. pneumoniae 7725 (SHV-1)) of 0.006 µg/mL. It also gave an MIC (K. pneumoniae 7725, SHV-1, non-carbapenemase producer) of 0.006 µg/mL, an MIC (K. pneumoniae 10112, CTX-M-15 + TEM-1 + SHV-11, non-carbapenemase producer) of 0.016 µg/mL and an MIC (K. pneumoniae 0404020, VIM-1+ SHV-5) greater than 32 µg/mL. For the same compound, the MIC (K. pneumoniae 0404024, VIM-1) was greater than 32 µg/mL, the MIC (K. pneumoniae 0511135, VIM-1+ SHV-12) was greater than 32 µg/mL and the MIC (K. pneumoniae 648236 (SHV-2a)) was 2 µg/mL. The MIC (K. pneumoniae 648236, SHV-2a, non-carbapenemase producer, porin deficiency) was 2 µg/mL, the MIC (K. pneumoniae 0709121, IMP-1) was 3 µg/mL and the MIC (K. pneumoniae 0709124, IMP-1 + TEM-15) was 3 µg/mL. The MIC (K. pneumoniae 0709125, IMP-1 + TEM-1 + SHV-12) was 4 µg/mL, the MIC (K. pneumoniae 0709127, IMP-1 + TEM-1) was 4 µg/mL and the MIC (K. pneumoniae A28006, KPC-2 + TEM-1 + CTX-M-2 + SHV-11) was 24 µg/mL. It also gave an MIC (K. pneumoniae A33504, KPC-2 + TEM-1 + SHV-11 + CTX-M-2 + OXA-9) greater than 32 µg/mL, an MIC (K. pneumoniae AEL, OXA-48 + CTX-M-15 + SHV-28 + OXA-1) of 6 µg/mL and an MIC (K. pneumoniae ALE (CTX-M-15 + SHV-1)) greater than 32 µg/mL. The MIC (K. pneumoniae ALE, CTX-M-15 + SHV-1, non-carbapenemase producer, porin deficiency) was greater than 32 µg/mL, the MIC (K. pneumoniae AMS (OXA-48 + TEM-1 + CTX-M-15 + OXA-1)) was 2 µg/mL and the MIC (K. pneumoniae AMS, OXA-48 + TEM-1 + CTX-M-15 + OXA-1) was 2 µg/mL. It also gave an MIC (K. pneumoniae BAJ (OXA-48 + TEM-1 + CTX-M-15 + SHV-28)) of 1.5 µg/mL, an MIC (K. pneumoniae BAJ, OXA-48 + TEM-1 + CTX-M-15 + SHV-28) of 1.5 µg/mL and an MIC (K. pneumoniae BED (CTX-M-15 + TEM-1 + SHV-1; Table 8: SHV-11)) greater than 32 µg/mL. The MIC (K. pneumoniae BED, CTX-M-15 + TEM-1 + SHV-11, non-carbapenemase producer, porin deficiency) was greater than 32 µg/mL, the MIC (K. pneumoniae BEL (OXA-48)) was 4 µg/mL and the MIC (K. pneumoniae BEL, OXA-48) was 4 µg/mL. It also gave an MIC (K. pneumoniae BEN (OXA-48 + TEM-1 + CTX-M-15 + SHV-28)) of 1 µg/mL, an MIC (K. pneumoniae BEN, OXA-48 + TEM-1 + CTX-M-15 + SHV-28) of 1 µg/mL and an MIC (K. pneumoniae BER (TEM-1 + SHV-28)) of 4 µg/mL. The MIC (K. pneumoniae BER, SHV-28 + TEM-1, non-carbapenemase producer, porin deficiency) was 4 µg/mL, the MIC (K. pneumoniae BEY (OXA-48 + CTX-M-15 + TEM-1)) was 0.38 µg/mL and the MIC (K. pneumoniae BEY, OXA-48 + TEM-1 + CTX-M-15) was 0.38 µg/mL. The MIC (K. pneumoniae BIC (OXA-48)) was 2 µg/mL, the MIC (K. pneumoniae BIC, OXA-48) was 2 µg/mL and the MIC (K. pneumoniae BOU, OXA-48) was 0.5 µg/mL. It also gave an MIC (K. pneumoniae CHA (OXA-48 + TEM-1)) of 1 µg/mL, an MIC (K. pneumoniae CHA, OXA-48 + TEM-1) of 1 µg/mL and an MIC (K. pneumoniae COL (KPC-2 + TEM-1 + SHV-1 + CTX-M-15)) of 4 µg/mL. The MIC (K. pneumoniae COO (CTX-M-15 + SHV28)) was greater than 32 µg/mL, the MIC (K. pneumoniae COO, CTX-M-15 + SHV-28, non-carbapenemase producer, porin deficiency) was greater than 32 µg/mL and the MIC (K. pneumoniae DAL (OXA-48 + CTX-M-15 + TEM-1)) was 2 µg/mL. The MIC (K. pneumoniae DAL, OXA-48 + TEM-1 + CTX-M-15) was 2 µg/mL, the MIC (K. pneumoniae DIA, OXA-48 + TEM-1b + CTX-M-15 + SHV-11 + OXA-1) was greater than 32 µg/mL and the MIC (K. pneumoniae DUW, OXA-48 + TEM-1 + CTX-M-15 + SHV-28) was 32 µg/mL. For the same compound, the MIC (K. pneumoniae EGY (OXA-48 + CTX-M-15)) was 3 µg/mL, the MIC (K. pneumoniae EGY, OXA-48 + CTX-M-15) was 3 µg/mL and the MIC (K. pneumoniae ELK (OXA-48 + TEM-1 + CTX-M-15 + SHV-11)) was 3 µg/mL. It also gave an MIC (K. pneumoniae ELK, OXA-48 + TEM-1 + CTX-M-15 + SHV-11) of 3 µg/mL, an MIC (K. pneumoniae ENN, VIM-1+ SHV-5) of 1.5 µg/mL and an MIC (K. pneumoniae FOS (CTX-M-15 + TEM-1 + SHV-11)) greater than 32 µg/mL. The MIC (K. pneumoniae FOS, CTX-M-15 + TEM-1 + SHV-11, non-carbapenemase producer, porin deficiency) was greater than 32 µg/mL, the MIC (K. pneumoniae GES, KPC-2 + TEM-1 + SHV-11) was 12 µg/mL and the MIC (K. pneumoniae HOL (OXA-181 + CTX-M-15)) was 4 µg/mL. The MIC (K. pneumoniae HOL, OXA-181 + CTX-M-15) was 4 µg/mL, the MIC (K. pneumoniae HPA, OXA-48 + TEM-1 + CTX-M-15 + OXA-1) was greater than 32 µg/mL and the MIC (K. pneumoniae IND (NDM-1 + OXA-1 + CTX-M-15)) was 8 µg/mL. For the same compound, the MIC (K. pneumoniae KAM, KPC-3 + TEM-1 + SHV-11) was 12 µg/mL, the MIC (K. pneumoniae KDH (DHA-2)) was 0.5 µg/mL and the MIC (K. pneumoniae KI2, NDM-1 + CTX-M-15 + OXA-1) was 8 µg/mL. It also gave an MIC (K. pneumoniae KIE, NDM-1 + SHV-38 + CMY-16 + OXA-10) of 2 µg/mL, an MIC (K. pneumoniae KPN (CTX-M-15)) of 0.12 µg/mL and an MIC (K. pneumoniae KPN, CTX-M-15, non-carbapenemase producer) of 0.012 µg/mL. The MIC (K. pneumoniae LEG (CTX-M-15 + TEM-1 + SHV-12)) was greater than 32 µg/mL, the MIC (K. pneumoniae LEG, CTX-M-15 + TEM-1 + SHV-12, non-carbapenemase producer, porin deficiency) was greater than 32 µg/mL and the MIC (K. pneumoniae LIB (OXA-48)) was greater than 32 µg/mL. The MIC (K. pneumoniae LIB, OXA-48) was 16 µg/mL.
